Test results published in patent US6794412B1, “Treatment of thrombosis by combined use of a factor Xa inhibitor and aspirin” (Bristol-Myers Squibb Pharma Company, priority 1999, dated 2004).

System: rabbit model of arterial thrombosis
Experiment: Electrically induced carotid artery thrombosis in rabbits, carotid blood flow over 90 min
Assay type: in vivo
Procedure: Rabbits were anesthetized with ketamine (50 mg/kg i.m.) and xylazine (10 mg/kg i.m.) and then surgically prepared with arterial and venous catheters. An electromagnetic flow probe was placed on a segment of an isolated carotid artery to monitor blood flow. Thrombus formation was induced by electrical stimulation of the carotid artery for 3 min at 4 mA using an external stainless-steel bipolar electrode. Carotid blood flow was measured continuously over a 90-min period to monitor thrombus occlusion. Test agents were infused intravenously 1 hour prior to the electrical stimulation of the carotid artery and continuously during the 90-min period.

[1] = Factor Xa inhibitor alone 0.1 mg/kg/hr i.v. infusion

With `CC(=O)Oc1ccccc1C(=O)O` [Aspirin] the “prevention of occlusion of the carotid artery” value (from here on “prevention”) (aspirin alone 1 mg/kg/hr i.v. infusion from 1 hour before stimulation and during 90 min) was “did not prevent the occlusion of the artery”.

`CS(=O)(=O)c1ccccc1-c1ccc(NC(=O)c2cc(C(F)(F)F)nn2-c2cccc(CN)c2)c(F)c1.O=C(O)C(F)(F)F` [Compound (1)] was tested, and the “prevention” value [1] was “did not prevent the occlusion of the artery”.

For `NCc1cccc(-n2nc(C(F)(F)F)cc2C(=O)Nc2ccc(-c3ccccc3S(N)(=O)=O)cc2)c1.O=C(O)C(F)(F)F` [Compound (3)], the “prevention” value [1] was “did not prevent the occlusion of the artery”.

With `CS(=O)(=O)O.Cc1noc(C)c1S(=O)(=O)N[C@@H](CNC(=O)C[C@H]1CC(c2ccc(C(=N)N)cc2)=NO1)C(=O)O` [Compound (4)] the “prevention” value (Compound (4) alone 0.03 mg/kg/hr i.v.) was “did not prevent the occlusion of the artery”.
